# Values of other authors as cited in US20260285945A1, “OMOMYC AND KRAS INHIBITORS COMBINATION THERAPY FOR THE TREATMENT OF CANCER” (PEPTOMYC, S.L., priority 2023, published 2026).
# System: cancer cell proliferation
# Conditions: single agent; background of the invention
structure (smiles),measurement,value
CNCc1ccccc1-c1csc([C@@H](C)Nc2nc(C)nc3cc(OC)c(OC)cc23)c1 [BAY-293],"Inhibition of cancer cell proliferation, potency",weak potency
